As a reminder, the pKa is the negative logarithm of the acid dissociation constant.

“Also recorded” adds a separate entry of the source.

Data on three compounds can be found in patent US9982188B2, “Near-infrared emitters” (MISSOURI STATE UNIVERSITY, priority 2015, dated 2018).

For series [1] the following is noted: related amide-cyanoximes, Ref [1, 2] / [1, 3]; cited from earlier work.
Series [2] can be described thus: potentiometric pH titration for pKa (ionization constant). As to conditions: isopropyl alcohol (ISA)/water mixture, aqueous pKa, 23° C., Yasuda-Shedlovsky extrapolation to zero ISA. It is filed as physicochemical. As for the experimental part: Ionization constants for the new cyanoxime compound 1 [H(DECO)] were determined using a Sirius Analytical Instruments automated titration station (Sussex, UK) equipped with a temperature-controlled bath. The titration was performed three times at 23° C. in an isopropyl alcohol (ISA) water mixture as described below. The weighed amount of compound 1 (3.08 mg) was placed into a titration vial. Sixteen milliliters of ISA water was delivered automatically to the vial. The pH of the solution was adjusted to 10 by adding 0.5 M KOH automatically. The titration with 0.5M HCl was performed automatically until a pH value of 2.5 was reached. To perform the second and third titrations, an additional volume of ISA and water (1 mL and 1 mL) was delivered automatically to the titration vial, respectively. The datasets for the three titrations were combined in the RefinementPro program to create a Multiset for pKa calculation. Also, these datasets were combined and extrapolated to a zero ISA concentration.
The aqueous pKa was calculated with a Yasuda-Shedlovsky extrapolation in the RefinementPro software.

Series [3] is described as follows: solubility observations in water and organic solvents. It counts as physicochemical.

As for `CN(C)C(=O)/C(C#N)=N/O` [H(DCO)], the “pKa (pH titration)” value in series [1] is given as 5.52 ± 0.03.

For `N#C/C(=N\O)C(N)=O` [H(ACO)], the “pKa (pH titration)” value in series [1] was 5.034 ± 0.002.

As for `CCN(CC)C(=O)/C(C#N)=N/O` [compound 1, 2-cyano-2-oximino-N,N′-diethylaminoacetamide], the pKa in series [2] is 5.622 ± 0.005. In addition, in series [3] (solvent named in the value), the “solubility in organic solvents” value is recorded as “soluble in most organic solvents except hydrocarbons”. Moreover, the solubility in water entry in series [3] (water) was “not well soluble in water; also recorded: insoluble in water”.
